From patent EP2272817A1, “PAI-1 INHIBITOR” (Institute of Medicinal Molecular Design, Inc., priority 2008, dated 2009) come the findings set out here.

For the assay, the target named is recombinant human PAI-1 (Homo sapiens, UniProt P05121). Put plainly: Test Example 2: Human PAI-1 Inhibitory Activity (pH 7.4 HEPES buffer, 10 minutes incubation with two-chain tPA). Type of assay: biochemical. Also on record: purchased Molecular Innovations, Inc. As to conditions: read-out: Inhibition Rate of PAI-1 Activity (%). As for the experimental part: 0.1 M HEPES, 0.1 M NaCl. 1 mM EDTA. 0.1 % Polyethylene glycol 8,000 (Hampton Research Corporation),
2 mM Dimethyldecylphoshine oxide [Apo-10] (Fluka Corporation)

Chain of recombinant human PAI-1 (P05121 24-402): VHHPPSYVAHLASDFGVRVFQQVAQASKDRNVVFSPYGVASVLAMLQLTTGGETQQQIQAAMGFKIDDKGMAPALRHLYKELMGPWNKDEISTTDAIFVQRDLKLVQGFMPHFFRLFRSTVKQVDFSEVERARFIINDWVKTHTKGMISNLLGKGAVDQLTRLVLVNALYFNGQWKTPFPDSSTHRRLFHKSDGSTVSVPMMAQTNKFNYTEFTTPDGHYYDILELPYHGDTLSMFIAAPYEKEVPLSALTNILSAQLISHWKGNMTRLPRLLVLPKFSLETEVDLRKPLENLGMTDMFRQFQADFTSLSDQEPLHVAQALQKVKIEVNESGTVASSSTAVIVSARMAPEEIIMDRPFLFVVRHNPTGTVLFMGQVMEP

Take `CCCCC(Oc1cc(Oc2ccc(OC(F)(F)F)cc2)ccc1OCc1ccc(C(C)(C)C)cc1)C(=O)O` (stereo not shown) [Compound 308]: the inhibition at 0.1 µM turned out to be 0%, the inhibition at 0.3 µM amounted to 22%, the inhibition at 1 µM worked out at 63% and the inhibition at 3 µM was found to be 95%.
Taken in the same sequence, the figures for `CCCCCOc1ccc(-c2ccc(OC(F)(F)F)cc2)cc1N(CCCCc1ccccc1)CC(=O)O` [Compound 640] were 0%, 19%, 92% and 92%.
Turning to `O=C(O)C(=O)N(CCCCc1ccccc1)c1ccc(-c2ccc3ccccc3c2)cc1` [Compound 671], the inhibition at 0.1 µM came to 26%, the inhibition at 0.3 µM was 12%, the inhibition at 1 µM was found to be 23% and the inhibition at 3 µM came to 92%.
On to `CCCCCOc1cc(-c2cccc(C(F)(F)F)c2)ccc1N(CCCCc1ccccc1)C(=O)C(=O)O` [Compound 377], for which the inhibition at 0.1 µM is 1%, the inhibition at 0.3 µM amounted to 23%, the inhibition at 1 µM turned out to be 83% and the inhibition at 3 µM came to 94%.
Taken in the same sequence, the figures for `CC(C)(C)c1ccc(COc2cc(-c3ccc(OC(F)(F)F)cc3)ccc2OCC(=O)O)cc1` [Compound 304] were 3%, 1%, 23% and 99%.
Taken in the same sequence, the figures for `CCCCCN(C(=O)C(=O)O)c1cc(-c2ccc(OC(F)(F)F)cc2)ccc1OCCCCc1ccccc1` [Compound 358] were 0%, 10%, 55% and 98%.
On to `CCCCOc1ccc(-c2ccc(OC(F)(F)F)cc2)cc1C=CC(=O)O` [Compound 405], for which the inhibition at 1 µM is 14%, the inhibition at 3 µM came to 63%, the inhibition at 10 µM is greater than 99% and the inhibition at 25 µM is 95%.
For `O=C(O)C(=O)N(CCCCc1ccccc1)c1cc(-c2ccc(OC(F)(F)F)cc2)ccc1Oc1ccccc1` [Compound 638], the inhibition at 0.1 µM was 5%, the inhibition at 0.3 µM was determined as 15%, the inhibition at 1 µM was found to be 57% and the inhibition at 3 µM was greater than 99%.
Taken in the same sequence, the figures for `CC(C)(C)c1ccc(Oc2cc(-c3ccc(C(C)(C)C)cc3)ccc2CCC(=O)O)cc1` [Compound 497] were 3%, 24%, greater than 99% and greater than 99%.
As to `CC(C)c1ccc(-c2ccc(/C=C/C(=O)O)c(Sc3ccc(C(C)(C)C)cc3)c2)cc1` [Compound 520], the inhibition at 0.1 µM was 14%, the inhibition at 0.3 µM was determined as 72%, the inhibition at 1 µM is greater than 99% and the inhibition at 3 µM is greater than 99%.
With `CC(C)Oc1ccc(-c2ccc(OCC(=O)O)c(Oc3ccc(C(C)(C)C)cc3)c2)cc1` [Compound 460], the inhibition at 0.1 µM worked out at 1%, the inhibition at 0.3 µM is 8%, the inhibition at 1 µM was 63% and the inhibition at 3 µM was greater than 99%.
`CC(C)(C)c1ccc(Oc2cc(-c3ccc(OC(F)(F)F)cc3)ccc2N(CCCCc2ccccc2)C(=O)C(=O)O)cc1` [Compound 635]: the inhibition at 0.1 µM is 14%, the inhibition at 0.3 µM was determined as 30%, the inhibition at 1 µM came to 45% and the inhibition at 3 µM is 91%.
For the molecule `CC(C)(C)c1ccc(Oc2cc(-c3ccc(C(C)(C)C)cc3)ccc2OCC(=O)O)cc1` [Compound 446], the inhibition at 0.1 µM was 3%, the inhibition at 0.3 µM came out at 13%, the inhibition at 1 µM was 84% and the inhibition at 3 µM is greater than 99%.
Taken in the same sequence, the figures for `CC(C)(C)c1ccc(Oc2cc(-c3ccc(C#N)cc3)ccc2OCC(=O)O)cc1` [Compound 471] were 5%, 7%, 11% and 49%.
For `CCCCC(Oc1cc(-c2cccc(C)c2)ccc1Oc1ccc(C(C)(C)C)cc1)C(=O)O` (stereo not shown) [Compound 317] the same measures were 14%, 16%, 79% and 94%.
Take `CCCCc1ccc(Oc2cc(-c3ccc(OC(F)(F)F)cc3)ccc2/C=C/C(=O)O)cc1` [Compound 511]: the inhibition at 0.1 µM was 11%, the inhibition at 0.3 µM amounted to 68%, the inhibition at 1 µM is greater than 99% and the inhibition at 3 µM was greater than 99%.
As to `CCCCCCCCOc1ccc(-c2ccc(OC(F)(F)F)cc2)cc1N(CCCCc1ccccc1)C(=O)C(=O)O` [Compound 353], the inhibition at 0.1 µM came to 6%, the inhibition at 0.3 µM was determined as 19%, the inhibition at 1 µM was determined as 87% and the inhibition at 3 µM came out at 87%.
With `CC(C)(C)c1ccc(Oc2ccc(Nc3ccc(OC(F)(F)F)cc3)cc2/C=C/C(=O)O)cc1` [Compound 431], the inhibition at 0.1 µM stood at 0%, the inhibition at 0.3 µM was 0%, the inhibition at 1 µM worked out at 77% and the inhibition at 3 µM was greater than 99%.
As for `CCCCCOc1ccc(-c2ccc(OC(F)(F)F)cc2)cc1N(CCCOCc1ccccc1)C(=O)C(=O)O` [Compound 655], the inhibition at 0.1 µM stood at 3%, the inhibition at 0.3 µM was found to be 0%, the inhibition at 1 µM was 44% and the inhibition at 3 µM was determined as 97%.
In the case of `CC(C)(C)c1ccc(CN(C(=O)CCCC(=O)O)c2ccc(-c3ccc(OC(F)(F)F)cc3)cc2)cc1` [Compound 604], the inhibition at 1 µM turned out to be 0%, the inhibition at 3 µM was determined as 20%, the inhibition at 10 µM was determined as 36% and the inhibition at 25 µM was 46%.
Taken in the same sequence, the figures for `O=C(O)CC(=O)N(Cc1ccccc1)c1ccc(-c2ccc(OC(F)(F)F)cc2)cc1F` [Compound 602] were 9%, 18%, 78% and greater than 99%.
As for `CCCCCOc1ccc(-c2ccc(OC(F)(F)F)cc2)cc1CN(CC(=O)O)c1ccc(C(C)(C)C)cc1` [Compound 647], the inhibition at 0.1 µM was determined as 27%, the inhibition at 0.3 µM stood at 43%, the inhibition at 1 µM amounted to 95% and the inhibition at 3 µM was found to be 98%.
Taken in the same sequence, the figures for `CC(C)(C)c1ccc(Oc2cc(-c3ccc(OC(F)(F)F)cc3)ccc2/C=C\C(=O)O)cc1` [Compound 450] were 9%, 11%, 58% and 98%.
For `CCCCOc1ccc(-c2ccc(OCC(=O)O)c(Oc3ccc(C(C)(C)C)cc3)c2)cc1` [Compound 468] the same measures were 1%, 5%, 86% and 97%.
For `CC(C)(C)c1cccc(Oc2cc(-c3cccc(OC(F)(F)F)c3)ccc2/C=C/C(=O)O)c1` [Compound 514], the inhibition at 0.1 µM amounted to 21%, the inhibition at 0.3 µM amounted to 22%, the inhibition at 1 µM is 96% and the inhibition at 3 µM is greater than 99%.
For the molecule `CCCCC(Oc1ccc(-c2ccc(OC(F)(F)F)cc2)cc1OCCCCc1ccccc1)C(=O)O` (stereo not shown) [Compound 311], the inhibition at 0.1 µM was 0%, the inhibition at 0.3 µM is 11%, the inhibition at 1 µM was determined as 77% and the inhibition at 3 µM stood at 97%.
For `O=C(O)/C=C/c1ccc(-c2ccc(OC(F)(F)F)cc2)cc1Oc1ccc(OC(F)(F)F)cc1` [Compound 477] the same measures were 7%, 21%, 60% and greater than 99%.
Take `CCCCOc1ccc(Oc2cc(-c3ccc(OC(F)(F)F)cc3)ccc2CCC(=O)O)cc1` [Compound 461]: the inhibition at 0.1 µM worked out at 1%, the inhibition at 0.3 µM turned out to be 26%, the inhibition at 1 µM was determined as 95% and the inhibition at 3 µM amounted to 98%.
For `CCCCC(Nc1cc(-c2ccc(OC(F)(F)F)cc2)ccc1Oc1ccc(C(C)(C)C)cc1)C(=O)O` (stereo not shown) [Compound 423] the same measures were 1%, 1%, 74% and 96%.
`CCCCCCCOc1ccc(N(CCCCc2ccccc2)C(=O)C(=O)O)cc1-c1ccc(OC(F)(F)F)cc1` [Compound 394]: the inhibition at 0.1 µM stood at 13%, the inhibition at 0.3 µM is 69%, the inhibition at 1 µM came to 98% and the inhibition at 3 µM is greater than 99%.
On to `CCCCCCCOc1cc(-c2ccc(OC(F)(F)F)cc2)cc(OCCCCCCC)c1OCC(=O)O` [Compound 425], for which the inhibition at 0.1 µM came to 17%, the inhibition at 0.3 µM came out at 54% and the inhibition at 1 µM is greater than 99%.
As for `CC(C)(C)[C@H]1CC[C@H](CN(C(=O)C(=O)O)c2ccc(-c3ccc(OC(F)(F)F)cc3)cc2)CC1` [Compound 679], the inhibition at 0.1 µM was 6%, the inhibition at 0.3 µM came to 9%, the inhibition at 1 µM is 84% and the inhibition at 3 µM is greater than 99%.
Taken in the same sequence, the figures for `CCCCCOc1cc(-c2ccc(OC(F)(F)F)cc2)cc(OCc2ccc(C(C)(C)C)cc2)c1OCC(=O)O` [Compound 301] were 15%, 25%, 96% and 97%.
Taken in the same sequence, the figures for `CCCCCOc1ccc(-c2ccc(F)cc2)cc1N(CCCCc1ccccc1)C(=O)C(=O)O` [Compound 359] were 1%, 7%, 26% and 96%.
With `CC(C)(C)c1ccc(CN(C(=O)C(=O)O)c2ccc(C(=O)Nc3ccc(OC(F)(F)F)cc3)cc2)cc1` [Compound 617], the inhibition at 1 µM is 6%, the inhibition at 3 µM was determined as 64%, the inhibition at 10 µM is greater than 99% and the inhibition at 25 µM was greater than 99%.

What is called inhibition is the drop in the measured response relative to a control, in per cent.
